Test results taken from ChEMBL document CHEMBL1151083, “Synthesis & characterization of N-amino-glyphosate as a potent analog inhibitor of E. coli EPSP synthase” (Bioorg Med Chem Lett, 1993).

Columns and labels:
[1] = biological target: T1, 3-phosphoshikimate 1-carboxyvinyltransferase (Escherichia coli K-12, UniProt P0A6D3); assay: Tested for the inhibition against Escherichia coli 5-enolpyruvyl-shikimate-3-phosphate synthase
T1 sequence (P0A6D3 whole entry): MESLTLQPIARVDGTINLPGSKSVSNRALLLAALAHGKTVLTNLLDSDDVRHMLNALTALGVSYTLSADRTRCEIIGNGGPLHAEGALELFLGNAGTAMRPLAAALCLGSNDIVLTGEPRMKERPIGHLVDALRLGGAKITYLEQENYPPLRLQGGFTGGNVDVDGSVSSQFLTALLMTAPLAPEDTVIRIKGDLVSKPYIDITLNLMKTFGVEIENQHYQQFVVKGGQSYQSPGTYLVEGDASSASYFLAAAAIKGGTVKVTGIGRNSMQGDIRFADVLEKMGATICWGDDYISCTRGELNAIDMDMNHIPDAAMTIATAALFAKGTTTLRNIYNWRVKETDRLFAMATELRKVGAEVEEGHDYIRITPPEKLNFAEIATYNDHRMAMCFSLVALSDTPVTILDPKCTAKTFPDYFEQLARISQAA

[2] = biological target: T1, 3-phosphoshikimate 1-carboxyvinyltransferase; assay: Tested for the inhibition against Escherichia coli 5-enolpyruvyl-shikimate-3-phosphate synthase versus phosphoenolpyruvate
[3] = biological target: T1, 3-phosphoshikimate 1-carboxyvinyltransferase; assay: Tested for the dissociation constant against Escherichia coli 5-enolpyruvyl-shikimate-3-phosphate synthase
[4] = biological target: T2, 3-phosphoshikimate 1-carboxyvinyltransferase (Escherichia coli K-12) (UniProt P0A6D3)
T2 sequence (whole entry): T1 sequence (P0A6D3 whole entry)
Description: Tested for the dissociation rate against Escherichia coli 5-enolpyruvyl-shikimate-3-phosphate synthase

[5] = biological target: T2, 3-phosphoshikimate 1-carboxyvinyltransferase (Escherichia coli K-12); remark: listed apart in the source
Description: Tested for the rate of association against Escherichia coli 5-enolpyruvyl-shikimate-3-phosphate synthase

Structure (SMILES) | IC50 [1] [µM] | Ki [2] [µM] | further results
CC(NCC(=O)O)P(=O)(O)O (stereo not given) | > 80 |  | 
CN(CC(=O)O)CP(=O)(O)O | 150 | 78 | 
NN(CC(=O)O)CP(=O)(O)O |  | 0.61 | Kd [3]: 0.5 µM; k off [4]: 0.16 s⁻¹; k on [5]: 320000 M⁻¹ s⁻¹
O=C(O)CNCP(=O)(O)O |  |  | k off [4]: 0.12 s⁻¹; k on [5]: 780000 M⁻¹ s⁻¹
COC(=O)CNCP(=O)(O)O | > 1 |  | 
CC(NCP(=O)(O)O)C(=O)O (stereo not given) | > 80 |  | 
O=C(O)CNC[PH](=O)O | 700 |  | 
O=C(O)CN(O)CP(=O)(O)O |  | 2.2 | 
NC(CC(=O)O)CP(=O)(O)O (stereo not given) | > 80 |  | 
O=NN(CC(=O)O)CP(=O)(O)O |  | 2.2 | 
